Among the data in PubChem BioAssay AID264 (DTP/NCI, 2004) are T/C values, retold here.

This experiment relates to nude mice, LX-1 lung xenograft intrarenal, tumor weight T/C. The experiment can be described thus: NCI In Vivo Anticancer Drug Screen. Data for tumor model Human Lung LX-1 Xenograft (intrarenal inoculation) in NU/NU Swiss (nude) mice. Particulars: endpoint: mean tumor weight change, higher = larger tumour. Summed up:
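Readout: T/C, i.e. treated-group tumor measurement over vehicle-control measurement. Mice bearing transplantable tumors were dosed with compound or vehicle.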
For orientation: In xenograft studies the graft and the host belong to different species.

The mark [1] stands for this setting: dose: 300.0 mg/kg/injection, schedule: Q04DX003 (sc), vehicle: saline with Tween-80.
The mark [2] stands for this setting: dose: 1200.0 mg/kg/injection, schedule: Q04DX003 (sc), vehicle: saline with Tween-80.
Setting [3] is: dose: 2400.0 mg/kg/injection, schedule: Q04DX003 (sc), vehicle: saline with Tween-80.
The mark [4] stands for this setting: dose: 300.0 mg/kg/injection, schedule: Q04DX003 (sc), vehicle: Klucel (hydroxypropylcellulose) (HPC).
Where [5] appears, read: dose: 50.0 mg/kg/injection, schedule: Q01DX010 (sc), vehicle: saline with Tween-80.
[6] abbreviates: dose: 100.0 mg/kg/injection, schedule: Q01DX010 (sc), vehicle: saline with Tween-80.
The mark [7] stands for this setting: dose: 200.0 mg/kg/injection, schedule: Q01DX010 (sc), vehicle: saline with Tween-80.
Setting [8] is: dose: 150.0 mg/kg/injection, schedule: Q04DX003 (sc), vehicle: Klucel (hydroxypropylcellulose) (HPC).
[9] abbreviates: dose: 600.0 mg/kg/injection, schedule: Q04DX003 (sc), vehicle: Klucel (hydroxypropylcellulose) (HPC).
Where [10] appears, read: dose: 150.0 mg/kg/injection, schedule: Q04DX003 (sc), vehicle: saline with Tween-80.
Where [11] appears, read: dose: 800.0 mg/kg/injection, schedule: Q01DX010 (sc), vehicle: saline with Tween-80.

Several values for one entry are separate records, joined by “and”; a condition that tells them apart may be missing. Identical values can stand only once. Records with an inconclusive call do not appear.

Regarding `NCC1CCC(C(=O)O)CC1` (configuration not stated), the T/C is 167 % of control under setting [1]; 104 % of control (dose: 600.0 mg/kg/injection, schedule: Q04DX003 (sc), vehicle: saline with Tween-80); 75 % of control under setting [2]; 79 % of control under setting [3].
On to `C[C@]12CCC(=O)C=C1CC[C@@H]1[C@@H]2[C@@H](O)C[C@@]2(C)[C@H]1CC[C@]2(O)C(=O)CO`, for which, under setting [4], the T/C was 40 % of control.
On to `COC1C(C)OC(OC2CC(C)(O)Cc3cc4c(c(O)c32)C(=O)c2c(O)cc3c(c2C4=O)OC2OC3(C)C(O)C(N(C)C)C2O)C(OC)C1(C)OC` (configuration not stated), for which the T/C runs as follows: (dose: 5.0 mg/kg/injection, schedule: Q04DX003 (sc), vehicle: Klucel (hydroxypropylcellulose) (HPC)) 118 % of control; (dose: 20.0 mg/kg/injection, schedule: Q04DX003 (sc), vehicle: Klucel (hydroxypropylcellulose) (HPC)) 60 % of control; (dose: 40.0 mg/kg/injection, schedule: Q04DX003 (sc), vehicle: Klucel (hydroxypropylcellulose) (HPC)) 98 % of control.
On to `Brc1c(NC2=NCCN2)ccc2nccnc12`, for which the T/C was 75 % of control (dose: 25.0 mg/kg/injection, schedule: Q04DX003 (sc), vehicle: saline); 55 % of control (dose: 50.0 mg/kg/injection, schedule: Q04DX003 (sc), vehicle: saline); 79 % of control (dose: 100.0 mg/kg/injection, schedule: Q04DX003 (sc), vehicle: saline); 69 % of control (dose: 200.0 mg/kg/injection, schedule: Q04DX003 (sc), vehicle: saline).
As for `O=Cc1ccc([N+](=O)[O-])s1`, the T/C is, setting by setting: (dose: 25.0 mg/kg/injection, schedule: Q01DX010 (sc), vehicle: saline with Tween-80) 94 % of control; under setting [5], 105 % of control; under setting [6], 81 % of control; under setting [7], 30 % of control.
For `CC1=C(O)C(=O)[C@@H]2O[C@@H]2C1=O`, the T/C is 103 % of control (dose: 1.25 mg/kg/injection, schedule: Q04DX003 (sc), vehicle: saline); 106 % of control (dose: 2.5 mg/kg/injection, schedule: Q04DX003 (sc), vehicle: saline); 160 % of control (dose: 5.0 mg/kg/injection, schedule: Q04DX003 (sc), vehicle: saline); 114 % of control (dose: 10.0 mg/kg/injection, schedule: Q04DX003 (sc), vehicle: saline).
Consider `O=S(=O)(O)O`, for which the T/C is, setting by setting: under setting [8], 70 % of control; under setting [4], 167 % of control; under setting [9], 73 % of control.
Take `COc1cccc2c1C(=O)c1c(O)c3c(c(O)c1C2=O)C[C@@](O)(C(=O)COC(=O)c1cccnc1)C[C@@H]3OC1CC(N)C(O)C(C)O1` (some centres not stated): the T/C is, setting by setting: (dose: 3.0 mg/kg/injection, schedule: Q04DX003 (sc), vehicle: saline) 120 % of control; (dose: 12.0 mg/kg/injection, schedule: Q04DX003 (sc), vehicle: saline) 75 % of control; (dose: 24.0 mg/kg/injection, schedule: Q04DX003 (sc), vehicle: saline) 83 % of control.
Take `O=C1NCC(Br)C(=O)N1` (configuration not stated): the T/C under setting [10] is 99 % of control and the T/C under setting [1] is 90 % of control.
Take `O=Cc1ccc(C(Cl)(Cl)Cl)cc1`: the T/C under setting [5] was 176 % of control, the T/C under setting [7] was 179 % of control and the T/C under setting [11] is 77 % of control.
On to `CNc1n[n+](-c2ccccc2)no1`, for which the T/C reads like this: (dose: 37.5 mg/kg/injection, schedule: Q04DX003 (sc), vehicle: water) 98 % of control; (dose: 75.0 mg/kg/injection, schedule: Q04DX003 (sc), vehicle: water) 92 % of control.
As to `CCOC(=O)C(CC(C)C)NC(=O)C(N)Cc1ccc(N(CCCl)CCCl)cc1` (configuration not stated), the T/C is 72 % of control (dose: 15.0 mg/kg/injection, schedule: Q04DX003 (sc), vehicle: water) and 55 % of control (dose: 30.0 mg/kg/injection, schedule: Q04DX003 (sc), vehicle: water).
For the molecule `Nc1nc2ccc(NCc3ccc(C(=O)NC(CCC(=O)O)C(=O)O)cc3)cc2c(=O)[nH]1` (configuration not stated), the T/C reads like this: (dose: 100.0 mg/kg/injection, schedule: Q04DX003 (sc), vehicle: saline with Tween-80) 94 % of control; (dose: 200.0 mg/kg/injection, schedule: Q04DX003 (sc), vehicle: saline with Tween-80) 83 % of control; (dose: 400.0 mg/kg/injection, schedule: Q04DX003 (sc), vehicle: saline with Tween-80) 109 % of control; (dose: 800.0 mg/kg/injection, schedule: Q04DX003 (sc), vehicle: saline with Tween-80) 63 % of control.
Consider `N#CC(=C1C=CC(=NO)C=C1)c1ccc(Cl)cc1`, for which the T/C was 173 % of control under setting [10]; 175 % of control and 198 % of control under setting [2]; 180 % of control under setting [3].
`O=C1C=CC(=O)N1c1ccc(Cl)cc1`: the T/C is 116 % of control (dose: 37.5 mg/kg/injection, schedule: Q04DX003 (sc), vehicle: Klucel (hydroxypropylcellulose) (HPC)); 123 % of control (dose: 75.0 mg/kg/injection, schedule: Q04DX003 (sc), vehicle: Klucel (hydroxypropylcellulose) (HPC)); 85 % of control under setting [8].
With `CC(=O)NC(C=O)OCC=O` (configuration not stated), the T/C (dose: 100.0 mg/kg/injection, schedule: Q04DX003 (sc), vehicle: water) is 116 % of control; the T/C (dose: 200.0 mg/kg/injection, schedule: Q04DX003 (sc), vehicle: water) was 112 % of control; the T/C (dose: 400.0 mg/kg/injection, schedule: Q04DX003 (sc), vehicle: water) is 121 % of control.
As to `O=NN(CCCl)C(=O)Oc1ccc(OC(=O)N(CCCl)N=O)cc1`, the T/C was 110 % of control under setting [4]; 70 % of control under setting [9]; 49 % of control (dose: 1200.0 mg/kg/injection, schedule: Q04DX003 (sc), vehicle: Klucel (hydroxypropylcellulose) (HPC)).
For `Cc1ccc2c(ccc(CC(=S)[S-])[n+]2C)c1`, the T/C (dose: 50.0 mg/kg/injection, schedule: Q01DX010 (sc), vehicle: Klucel (hydroxypropylcellulose) (HPC)) is 56 % of control; the T/C (dose: 100.0 mg/kg/injection, schedule: Q01DX010 (sc), vehicle: Klucel (hydroxypropylcellulose) (HPC)) was 99 % of control; the T/C (dose: 200.0 mg/kg/injection, schedule: Q01DX010 (sc), vehicle: Klucel (hydroxypropylcellulose) (HPC)) was 207 % of control; the T/C (dose: 400.0 mg/kg/injection, schedule: Q01DX010 (sc), vehicle: Klucel (hydroxypropylcellulose) (HPC)) was 72 % of control.
As to `COc1cc2c(c(OC)c1OC)-c1c(cc3c(c1OC)OCO3)CC(C)C(C)(O)C2OC(=O)c1ccccc1` (configuration not stated), the T/C reads like this: (dose: 300.0 mg/kg/injection, schedule: Q04DX003 (sc), vehicle: saline + alcohol) 65 % of control; (dose: 600.0 mg/kg/injection, schedule: Q04DX003 (sc), vehicle: saline + alcohol) 107 % of control; (dose: 1200.0 mg/kg/injection, schedule: Q04DX003 (sc), vehicle: saline + alcohol) 108 % of control; (dose: 2400.0 mg/kg/injection, schedule: Q04DX003 (sc), vehicle: saline + alcohol) 77 % of control.
For `Oc1ccc(CCl)c2cccnc12`, the T/C is 91 % of control (dose: 75.0 mg/kg/injection, schedule: Q04DX003 (sc), vehicle: saline); 78 % of control (dose: 150.0 mg/kg/injection, schedule: Q04DX003 (sc), vehicle: saline); 46 % of control (dose: 300.0 mg/kg/injection, schedule: Q04DX003 (sc), vehicle: saline).
As for `O=CN(SSN(C=O)C1CCCCC1)C1CCCCC1`, the T/C reads like this: under setting [5], 395 % of control; under setting [6], 104 % of control; under setting [7], 234 % of control; (dose: 400.0 mg/kg/injection, schedule: Q01DX010 (sc), vehicle: saline with Tween-80) 97 % of control and 122 % of control; under setting [11], 48 % of control; (dose: 1600.0 mg/kg/injection, schedule: Q01DX010 (sc), vehicle: saline with Tween-80) 54 % of control.
Regarding `CC(=O)OC1COC(NC(=O)N(CCCl)N=O)C(OC(C)=O)C1OC(C)=O` (configuration not stated), the T/C (dose: 1.5 mg/kg/injection, schedule: Q01DX010 (sc), vehicle: saline with Tween-80) is 83 % of control; the T/C (dose: 3.0 mg/kg/injection, schedule: Q01DX010 (sc), vehicle: saline with Tween-80) was 71 % of control; the T/C (dose: 6.0 mg/kg/injection, schedule: Q01DX010 (sc), vehicle: saline with Tween-80) was 60 % of control; the T/C (dose: 12.0 mg/kg/injection, schedule: Q01DX010 (sc), vehicle: saline with Tween-80) is 72 % of control.
